Where “and” joins values, the source holds several entries; their conditions need not be identical. Equal entries are not always repeated.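 How tested: cells in 96-well plates exposed to compound for 48 hours at five concentrations. GI50 is the concentration that inhibits growth by half.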 Calls of active or inactive are those of the source. No stated cut-off is given here; in the data, active = GI50 up to about 1.1 µM and inactive = higher.
Tests used:
Test in all cases: growth of human tumour cells (NCI), 48 h
ACHN = test system: ACHN
CAKI-1 = test system: CAKI-1
HCC 2998 = test system: HCC 2998
HCT-116 = test system: HCT-116
HOP-62 = test system: HOP-62
K562 = test system: K562
KM-20L2 = test system: KM-20L2
KM12 = test system: KM12
MOLT-4 = test system: MOLT-4
NCI-H23 = test system: NCI-H23
OVCAR-3 = test system: OVCAR-3
OVCAR-5 = test system: OVCAR-5
RXF 393 = test system: RXF 393
SF-295 = test system: SF-295
SK-MEL-2 = test system: SK-MEL-2
SNB-75 = test system: SNB-75
TK-10 = test system: TK-10
UO-31 = test system: UO-31
LOX IMVI = test system: LOX IMVI
BT-549 = test system: BT-549

Measured: GI50

C=CC1(C(=O)O)CCC(C(C)(C)C)CC1 (stereo not given)
inactive: ACHN > 100 µM | CAKI-1 > 100 µM | HCC 2998 > 100 µM | HCT-116 > 100 µM | HOP-62 > 100 µM | K562 > 100 µM | KM-20L2 > 100 µM | KM12 > 100 µM | MOLT-4 > 100 µM | NCI-H23 > 100 µM | OVCAR-3 > 100 µM | OVCAR-5 > 100 µM | RXF 393 > 100 µM | SF-295 > 100 µM | SK-MEL-2 > 100 µM | SNB-75 > 100 µM | TK-10 > 100 µM | UO-31 > 100 µM

CC(=O)OCC12CC(CC1OC(C)=O)c1ccccc12 (stereo not given)
inactive: ACHN > 100 µM | CAKI-1 > 100 µM | HCC 2998 > 100 µM | HCT-116 > 100 µM | HOP-62 > 100 µM | K562 > 100 µM | KM-20L2 > 100 µM | LOX IMVI > 100 µM | MOLT-4 > 100 µM | NCI-H23 > 100 µM | OVCAR-3 > 100 µM | OVCAR-5 > 100 µM | SF-295 > 100 µM | TK-10 > 100 µM | UO-31 > 100 µM

COc1cc2c(Cc3cc(OCc4ccccc4)ccc3N)nccc2c(OC)c1OC
inactive: ACHN > 10 µM | HCC 2998 > 10 µM | HCT-116 > 10 µM | HOP-62 > 10 µM | K562 > 10 µM | KM-20L2 > 10 µM | KM12 > 10 µM | LOX IMVI > 10 µM | MOLT-4 > 10 µM | NCI-H23 > 10 µM | OVCAR-3 > 10 µM | OVCAR-5 > 10 µM | RXF 393 > 10 µM | SF-295 > 10 µM | SK-MEL-2 > 10 µM | SNB-75 > 10 µM | TK-10 > 10 µM | UO-31 > 10 µM

N#CC(c1ccccc1)c1nc2ccc(N)cc2[n+]([O-])c1C(C#N)c1ccccc1 (stereo not given)
inactive: ACHN 58.1 µM | CAKI-1 69.8 µM | HCT-116 54.1 µM | HOP-62 > 100 µM | K562 44.5 µM | KM-20L2 75.3 µM | KM12 60.7 µM | LOX IMVI 64.9 µM | MOLT-4 53.7 µM | NCI-H23 67.8 µM | OVCAR-3 91.8 µM | OVCAR-5 > 100 µM | RXF 393 38.9 µM | SF-295 > 100 µM | SK-MEL-2 40.2 µM | TK-10 > 100 µM | UO-31 68.2 µM

COc1ccc([S+]([O-])Cc2cc(OC)c(OC)c(OC)c2)cc1 (stereo not given)
inactive: ACHN > 100 µM | BT-549 46.7 µM | CAKI-1 56.9 µM | HCC 2998 54.3 µM | HCT-116 40.4 µM | HOP-62 45.5 µM | K562 14.7 µM | KM12 40.8 µM | LOX IMVI 91.6 µM | MOLT-4 27 µM | NCI-H23 76.2 µM | OVCAR-3 57.8 µM | OVCAR-5 42.9 µM | RXF 393 29.2 µM | SF-295 47.3 µM | SK-MEL-2 38.1 µM | SNB-75 45.4 µM | TK-10 > 100 µM | UO-31 > 100 µM

C[C@@H]1CC[C@@]2(C)OC(c3ccccc3)[C@H](CO)N2C1=O (stereo not given in full)
inactive: ACHN > 100 µM | CAKI-1 > 100 µM | HCT-116 > 100 µM | HOP-62 > 100 µM | K562 > 100 µM | KM-20L2 > 100 µM | KM12 > 100 µM | LOX IMVI > 100 µM | NCI-H23 > 100 µM | OVCAR-3 > 100 µM | OVCAR-5 > 100 µM | RXF 393 > 100 µM | SF-295 > 100 µM | SK-MEL-2 > 100 µM | SNB-75 > 100 µM | TK-10 > 100 µM

O=c1ncccn1[C@@H]1O[C@H](CO)[C@@H](O)[C@@H]1F
inactive: ACHN > 100 µM | CAKI-1 > 100 µM | HCC 2998 > 100 µM | HOP-62 > 68.5 µM | KM-20L2 > 100 µM | LOX IMVI > 100 µM and > 59.2 µM | MOLT-4 > 100 µM | NCI-H23 > 100 µM | OVCAR-3 > 100 µM | OVCAR-5 > 100 µM | RXF 393 > 100 µM | SF-295 > 100 µM | SK-MEL-2 > 100 µM | SNB-75 > 100 µM and > 50.9 µM | TK-10 > 100 µM and > 69.5 µM

CCOC(=O)C(Cc1cn(S(=O)(=O)c2ccccc2)c2ccccc12)(NC(C)=O)C(=O)OCC
inactive: ACHN 32.3 µM | CAKI-1 49.1 µM | HCC 2998 34 µM | HCT-116 24.7 µM | HOP-62 27.2 µM | K562 29 µM | KM-20L2 46.6 µM | KM12 29.4 µM | MOLT-4 19 µM | NCI-H23 26.3 µM | OVCAR-3 34 µM | OVCAR-5 > 100 µM | SF-295 29.1 µM | SK-MEL-2 30.6 µM | SNB-75 8.18 µM | TK-10 65.5 µM | UO-31 17.1 µM

From ChEMBL document CHEMBL1201862, “PubChem BioAssay data set” (2004)
